Experimental data from ChEMBL document CHEMBL4020715, “Structure-activity relationship study of vitamin D analogs with oxolane group in their side chain” (Eur J Med Chem, 2017).
Active and inactive are the calls of the source. No cut-off for these calls is given here.

Experiments:
Type in all cases: cell-based
[1] = target: T1, Vitamin D3 receptor A (Danio rerio) (UniProt Q9PTN2); experiment: Agonist activity at zebrafish VDR LBD (156 to 453 residues) expressed in HEK293 EBNA cells harboring human CYP24-Tk-Luc plasmid assessed as induction of CYP24a1 gene at 1000 nM after 18 hrs by dual-luciferase transcriptional reporter gene assay relative to control
T1 sequence (whole entry): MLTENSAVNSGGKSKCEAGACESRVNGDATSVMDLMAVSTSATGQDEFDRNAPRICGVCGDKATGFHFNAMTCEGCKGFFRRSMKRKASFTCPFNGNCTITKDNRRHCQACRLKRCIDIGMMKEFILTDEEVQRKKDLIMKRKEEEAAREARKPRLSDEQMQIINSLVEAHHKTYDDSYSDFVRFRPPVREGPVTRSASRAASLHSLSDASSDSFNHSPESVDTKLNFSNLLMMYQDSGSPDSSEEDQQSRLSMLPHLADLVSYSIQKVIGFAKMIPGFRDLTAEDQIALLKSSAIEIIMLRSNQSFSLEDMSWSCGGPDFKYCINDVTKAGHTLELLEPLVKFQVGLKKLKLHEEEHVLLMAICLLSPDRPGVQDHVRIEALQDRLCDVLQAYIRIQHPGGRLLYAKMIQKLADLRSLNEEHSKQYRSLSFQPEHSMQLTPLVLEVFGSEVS

[2] = target: T1, Vitamin D3 receptor A (Danio rerio); experiment: Agonist activity at zebrafish VDR LBD (156 to 453 residues) expressed in HEK293 EBNA cells harboring human CYP24-Tk-Luc plasmid assessed as induction of CYP24a1 gene at 0.1 nM after 18 hrs by dual-luciferase transcriptional reporter gene assay
Vitamin D3 receptor A = target: T2, Vitamin D3 receptor A (Danio rerio, UniProt Q9PTN2); experiment: Agonist activity at zebrafish VDR LBD (156 to 453 residues) expressed in HEK293 EBNA cells harboring human CYP24-Tk-Luc plasmid assessed as induction of CYP24a1 gene after 18 hrs by dual-luciferase transcriptional reporter gene assay
T2 sequence (Q9PTN2 whole entry): T1 sequence (whole entry)

[3] = target: T3, Vitamin D3 receptor (Homo sapiens) (UniProt P11473); experiment: Agonist activity at VP16-fused human full length VDR expressed in COS7 cells assessed as corepressor Gal4 DBD-fused SMRT NRID release at 10 to 1000 nM after 48 hrs by luciferase reporter gene assay based mammalian two-hybrid assay
T3 sequence (whole entry): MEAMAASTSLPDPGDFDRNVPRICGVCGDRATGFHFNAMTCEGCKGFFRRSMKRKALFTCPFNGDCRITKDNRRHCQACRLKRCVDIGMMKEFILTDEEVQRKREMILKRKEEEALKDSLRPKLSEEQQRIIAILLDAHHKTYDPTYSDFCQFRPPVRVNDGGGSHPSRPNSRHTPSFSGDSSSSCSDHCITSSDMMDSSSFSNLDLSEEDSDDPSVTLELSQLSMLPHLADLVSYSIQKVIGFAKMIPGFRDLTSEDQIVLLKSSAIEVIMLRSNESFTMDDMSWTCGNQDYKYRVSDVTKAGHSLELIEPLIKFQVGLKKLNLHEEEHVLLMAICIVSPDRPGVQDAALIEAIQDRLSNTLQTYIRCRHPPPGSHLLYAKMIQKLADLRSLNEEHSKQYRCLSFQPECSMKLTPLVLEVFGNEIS

[4] = target: T3, Vitamin D3 receptor (Homo sapiens); experiment: Agonist activity at VP16-fused human full length VDR expressed in COS7 cells assessed as corepressor Gal4 DBD-fused NCOR NRID release at 10 to 1000 nM after 48 hrs by luciferase reporter gene assay based mammalian two-hybrid assay
[5] = target: T1, Vitamin D3 receptor A (Danio rerio); experiment: Agonist activity at zebrafish VDR LBD (156 to 453 residues) expressed in HEK293 EBNA cells harboring human CYP24-Tk-Luc plasmid assessed as induction of CYP24a1 gene at 100 nM after 18 hrs by dual-luciferase transcriptional reporter gene assay

| SMILES | Efficacy [1] | Activity [2] | EC50 (Vitamin D3 receptor A) | Activity [3] | Activity [4] | Activity [5] |
| --- | --- | --- | --- | --- | --- | --- |
| C=C1/C(=C\C=C2/CCC[C@]3(C)[C@@H]([C@H](C)CCCC(C)(C)O)CC[C@@H]23)C[C@@H](O)C[C@H]1O | 100% |  |  |  |  |  |
| C=C1/C(=C\C=C2/CCC[C@@]3(C)[C@H]2CC[C@@H]3[C@]2(C)C[C@@H](CC(C)(C)O)CO2)C[C@@H](O)C[C@@H]1O |  | Active |  |  |  |  |
| C=C1/C(=C\C=C2/CCC[C@]3(C)[C@@H]([C@H](C)[C@H]4CC[C@@H](C(C)(C)O)O4)CC[C@@H]23)C[C@@H](O)C[C@H]1O | 100% |  | > 100 nM | Active | Active |  |
| C=C1/C(=C\C=C2/CCC[C@]3(C)[C@@H]([C@H](C)[C@@H]4CC[C@@H](C(C)(C)O)O4)CC[C@@H]23)C[C@@H](O)C[C@H]1O | 90% |  | > 100 nM | Active | Active | Active |
| C=C1/C(=C\C=C2/CCC[C@]3(C)[C@@H]([C@H](C)[C@@H]4CC[C@H](C(C)(C)O)O4)CC[C@@H]23)C[C@@H](O)C[C@H]1O | 47% |  | > 100 nM | Active | Active |  |
